The source of these data is patent publication US20200405696A1, “INHIBITORS OF INDOLEAMINE 2,3-DIOXYGENASE AND/OR TRYPTOPHAN 2,3-DIOXYGENASE” (IDORSIA PHARMACEUTICALS LTD, priority 2018, published 2020).

For orientation: IC50 means the point on the concentration scale where inhibition reaches its midpoint.

Assay [1] has as its target T1, Recombinant human TDO comprising amino acids 19-407 (Homo sapiens, UniProt P48775).
T1 construct: Recombinant human TDO comprising amino acids 19-407 with a N-terminal hexahistidine tag; hexahistidine (His6) (N); made in house; host or cells: E. coli
Briefly: TDO2 enzymatic assay (NFK quantified by LCMS). In kind it is biochemical. The following applies: 15 nM enzyme, 200 μM L-tryptophan, pH7, 30 minutes pre-incubation at RT; mean values when measured multiple times; read-out: hTDO activity (IC50 in nM). In outline: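 NFK formed over 30 min at RT from 200 μM L-tryptophan was measured by LCMS, normalized to d5-tryptophan, after compound (0.5 nM–10 μM, duplicates, 0.6% DMSO) was preincubated 30 min with 15 nM recombinant His-tagged TDO 19-407 in phosphate buffer pH 7. IC50 from four-parameter logistic fit; repeats averaged.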

Assay [2] has as its target T2, Recombinant full-length human IDO1 (Homo sapiens, UniProt P14902).
T2 construct: Recombinant full-length human IDO1 with a N-terminal hexahistidine tag; hexahistidine (His6) (N); made in house; host or cells: E. coli
Briefly: IDO1 enzymatic assay (NFK quantified by LCMS). In kind it is biochemical. The following applies: 2 nM enzyme, 5 μM L-tryptophan, pH6.5, 30 minutes pre-incubation at RT; mean values when measured multiple times; read-out: hIDO activity (IC50 in nM). In outline:
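IC50 comes from four-parameter logistic fits of duplicate data, with NFK quantified by LCMS and normalized to L-Trp-(indole-d5). Compound (0.5 nM–10 μM) was preincubated 30 min at RT with 2 nM E. coli-expressed IDO1 before a 30 min reaction with 5 μM tryptophan in pH 6.5 buffer containing ascorbate and methylene blue.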

T2 sequence (P14902 whole entry): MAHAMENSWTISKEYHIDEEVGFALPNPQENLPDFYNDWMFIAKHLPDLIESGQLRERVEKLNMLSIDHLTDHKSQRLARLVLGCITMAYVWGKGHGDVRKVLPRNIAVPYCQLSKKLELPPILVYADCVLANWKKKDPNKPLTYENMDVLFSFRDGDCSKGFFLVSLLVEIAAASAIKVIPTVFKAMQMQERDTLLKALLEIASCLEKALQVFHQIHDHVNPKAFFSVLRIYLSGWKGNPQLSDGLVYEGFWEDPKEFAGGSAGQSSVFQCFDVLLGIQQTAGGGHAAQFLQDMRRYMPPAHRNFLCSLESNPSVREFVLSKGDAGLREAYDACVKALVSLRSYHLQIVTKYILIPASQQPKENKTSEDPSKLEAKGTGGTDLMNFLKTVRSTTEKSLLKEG
T1 sequence (P48775 19-406 limits assumed): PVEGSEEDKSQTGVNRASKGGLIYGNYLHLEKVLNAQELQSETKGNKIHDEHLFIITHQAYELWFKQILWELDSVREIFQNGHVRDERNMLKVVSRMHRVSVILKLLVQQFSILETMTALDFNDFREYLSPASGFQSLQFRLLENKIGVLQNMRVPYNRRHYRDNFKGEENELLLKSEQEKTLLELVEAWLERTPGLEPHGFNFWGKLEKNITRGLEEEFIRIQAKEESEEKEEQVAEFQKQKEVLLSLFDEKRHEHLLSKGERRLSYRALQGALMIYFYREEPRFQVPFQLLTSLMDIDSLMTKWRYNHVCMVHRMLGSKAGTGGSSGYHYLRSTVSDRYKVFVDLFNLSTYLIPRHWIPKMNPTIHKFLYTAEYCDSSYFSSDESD

Consider `CCc1sc2cncn2c1C(O)c1cn(-c2cc(F)c(OC)cc2F)nn1` (racemic) [Example 321, rac-[1-(2,5-Difluoro-4-methoxy-phenyl)-1H-[1,2,3]triazol-4-yl]-(2-ethyl-imidazo[5,1-b]thiazol-3-yl)-methanol], for which the figures for the IC50 in assay [1] and in assay [2] were 3680 nM and 2.13 nM, respectively.

In the case of `COc1ccc(-n2cc(C(O)c3c(C4CC4)sc4cncn34)nn2)cc1` (racemic) [Example 9, rac-(2-Cyclopropyl-imidazo[5,1-b]thiazol-3-yl)-[1-(4-methoxy-phenyl)-1H-[1,2,3]triazol-4-yl]-methanol], the half-inhibitory concentration (IC50) in assay [1] was greater than 10200 nM; in assay [2] it was 8.62 nM.

Regarding `O[C@@H](c1cn(-c2ccc(OCC3(F)COC3)c(Cl)c2)nn1)c1c(C2CC2)sc2cncn12` [Example 282, (R)-{1-[3-Chloro-4-(3-fluoro-oxetan-3-ylmethoxy)-phenyl]-1H-[1,2,3]triazol-4-yl}-(2-cyclopropyl-imidazo[5,1-b]thiazol-3-yl)-methanol], the half-maximal inhibitory concentration (IC50) is greater than 10200 nM in assay [1] and 5.58 nM in assay [2].

In the case of `N#Cc1cccc(-n2cc([C@H](O)c3c(C4CC4)sc4cncn34)nn2)c1` [Example 18a, 3-{4-[(R)-(2-Cyclopropyl-imidazo[5,1-b]thiazol-3-yl)-hydroxy-methyl]-[1,2,3]triazol-1-yl}-benzonitrile], the figures for the IC50 in assay [1] and in assay [2] were greater than 10200 nM and 13.5 nM, respectively.

In the case of `O[C@@H](c1cn(-c2ccc3[nH]ccc3c2)nn1)c1c(C2CC2)sc2cncn12` [Example 16a, (R)-(2-Cyclopropyl-imidazo[5,1-b]thiazol-3-yl)-[1-(1H-indol-5-yl)-1H-[1,2,3]triazol-4-yl]-methanol], the figures for the IC50 in assay [1] and in assay [2] were 4570 nM and 4.55 nM, respectively.

Consider `OC(c1cn(-c2ccnc3ccccc23)nn1)c1c(C2CC2)sc2cncn12` (racemic) [Example 25, rac-(2-Cyclopropyl-imidazo[5,1-b]thiazol-3-yl)-(1-quinolin-4-yl-1H-[1,2,3]triazol-4-yl)-methanol], for which the IC50 in assay [1] was greater than 10200 nM; in assay [2], 18.3 nM.

As for `COc1ccc(-n2cc(C(O)c3c(C(F)(F)F)sc4cncn34)nn2)cc1` (racemic) [Example 134, rac-[1-(4-Methoxy-phenyl)-1H-[1,2,3]triazol-4-yl]-(2-trifluoromethyl-imidazo[5,1-b]thiazol-3-yl)-methanol], the 50% inhibitory concentration (IC50) was greater than 10200 nM in assay [1] and 11.4 nM in assay [2].

Regarding `CCc1sc2cncn2c1C(O)c1cn(-c2ccc(C(=O)NC3CC3)cc2)nn1` (racemic) [Example 125, rac-N-Cyclopropyl-4-{4-[(2-ethyl-imidazo[5,1-b]thiazol-3-yl)-hydroxy-methyl]-[1,2,3]triazol-1-yl}-benzamide], the results for the IC50 in assay [1] and in assay [2] were 8710 nM and 15 nM, respectively.

Turning to `CC(C)(O)CCOc1ccc(-n2cc(C(O)c3c([C@@H]4C[C@@H]4F)sc4cncn34)nn2)cc1Cl` (relative stereo) [Example 309, 4-[2-Chloro-4-(4-{[2-(cis-2-fluoro-cyclopropyl)-imidazo[5,1-b]thiazol-3-yl]-hydroxy-methyl}-[1,2,3]triazol-1-yl)-phenoxy]-2-methyl-butan-2-ol], the concentration for half-maximal inhibition (IC50) in assay [1] was greater than 10200 nM; in assay [2], 17 nM.

`Cc1sc2cncn2c1C(O)c1cn(-c2ccc(OCC3CC3)cc2)nn1` (racemic) [Example 63, rac-[1-(4-Cyclopropylmethoxy-phenyl)-1H-[1,2,3]triazol-4-yl]-(2-methyl-imidazo[5,1-b]thiazol-3-yl)-methanol]: the half-maximal inhibitory concentration (IC50) in assay [1] was greater than 10200 nM; in assay [2], 27.7 nM.

As for `OC(c1cn(-c2ccccc2C(F)(F)F)nn1)c1c(C2CC2)sc2cncn12` (racemic) [Example 29, rac-(2-Cyclopropyl-imidazo[5,1-b]thiazol-3-yl)-[1-(2-trifluoromethyl-phenyl)-1H-[1,2,3]triazol-4-yl]-methanol], the IC50 in assay [1] was greater than 10200 nM; in assay [2], 163 nM.

With `CCc1sc2cncn2c1C(O)c1cn(-c2ccc(C(N)=O)cc2)nn1` (racemic) [Example 116, rac-4-{4-[(2-Ethyl-imidazo[5,1-b]thiazol-3-yl)-hydroxy-methyl]-[1,2,3]triazol-1-yl}-benzamide], the half-maximal inhibitory concentration (IC50) in assay [1] was 5210 nM; in assay [2], 12.3 nM.

In the case of `C=C(C)c1sc2cncn2c1C(O)c1cn(-c2ccc(OCC3(F)COC3)c(Cl)c2)nn1` (racemic) [Example 299, rac-{1-[3-Chloro-4-(3-fluoro-oxetan-3-ylmethoxy)-phenyl]-1H-[1,2,3]triazol-4-yl}-(2-isopropenyl-imidazo[5,1-b]thiazol-3-yl)-methanol], the IC50 is greater than 10200 nM in assay [1] and 34.8 nM in assay [2].

For the compound `CCc1sc2cncn2c1C(O)c1cn(-c2cccc(C#N)c2)nn1` (racemic) [Example 51, rac-3-{4-[(2-Ethyl-imidazo[5,1-b]thiazol-3-yl)-hydroxy-methyl]-[1,2,3]triazol-1-yl}-benzonitrile], the values for the half-inhibitory concentration (IC50) in assay [1] and in assay [2] were greater than 10200 nM and 37.1 nM, respectively.

For `O[C@@H](c1cn(-c2ccc(OCC3CCOCC3)c(Cl)c2)nn1)c1c(C2CC2)sc2cncn12` [Example 276, (R)-{1-[3-Chloro-4-(tetrahydro-pyran-4-ylmethoxy)-phenyl]-1H-[1,2,3]triazol-4-yl}-(2-cyclopropyl-imidazo[5,1-b]thiazol-3-yl)-methanol], the values for the IC50 in assay [1] and in assay [2] were greater than 10200 nM and 4.63 nM, respectively.

Turning to `CCNC(=O)c1ccc(-n2cc(C(O)c3c(CC)sc4cncn34)nn2)cc1` (racemic) [Example 128, rac-N-Ethyl-4-{4-[(2-ethyl-imidazo[5,1-b]thiazol-3-yl)-hydroxy-methyl]-[1,2,3]triazol-1-yl}-benzamide], the IC50 is 9780 nM in assay [1] and 16.5 nM in assay [2].

As for `Nc1ccc(-n2cc(C(O)c3c(C4CC4)sc4cncn34)nn2)cc1Cl` (racemic) [Example 278, rac-[1-(4-Amino-3-chloro-phenyl)-1H-[1,2,3]triazol-4-yl]-(2-cyclopropyl-imidazo[5,1-b]thiazol-3-yl)-methanol], the values for the IC50 in assay [1] and in assay [2] were greater than 10200 nM and 8.71 nM, respectively.

Turning to `O=[N+]([O-])c1cc(-n2cc(C(O)c3c(C4CC4)sc4cncn34)nn2)ccc1O` (racemic) [Example 248, rac-4-{4-[(2-Cyclopropyl-imidazo[5,1-b]thiazol-3-yl)-hydroxy-methyl]-[1,2,3]triazol-1-yl}-2-nitro-phenol], the results for the IC50 in assay [1] and in assay [2] were 4710 nM and 2.6 nM, respectively.

Turning to `Cc1cc(O)ccc1-n1cc(C(O)c2c(C3CC3)sc3cncn23)nn1` (racemic) [Example 207, rac-4-{4-[(2-Cyclopropyl-imidazo[5,1-b]thiazol-3-yl)-hydroxy-methyl]-[1,2,3]triazol-1-yl}-3-methyl-phenol], the results for the half-inhibitory concentration (IC50) in assay [1] and in assay [2] were greater than 10200 nM and 26.9 nM, respectively.

For the compound `CCc1sc2cncn2c1C(O)c1cn(-c2ccc3[nH]c(=O)[nH]c3c2)nn1` (racemic) [Example 112, rac-5-{4-[(2-Ethyl-imidazo[5,1-b]thiazol-3-yl)-hydroxy-methyl]-[1,2,3]triazol-1-yl}-1,3-dihydro-benzoimidazol-2-one], the IC50 in assay [1] was determined as 6220 nM; in assay [2] it was 45.6 nM.

For the compound `COc1c(F)cc(-n2cc(C(O)c3c(C4CC4)sc4cncn34)nn2)cc1Cl` (racemic) [Example 288, rac-[1-(3-Chloro-5-fluoro-4-methoxy-phenyl)-1H-[1,2,3]triazol-4-yl]-(2-cyclopropyl-imidazo[5,1-b]thiazol-3-yl)-methanol], the IC50 in assay [1] is greater than 10200 nM; in assay [2], 15.1 nM.

Regarding `COc1cccc(-c2ccc(C(O)c3c(C4CC4)sc4cncn34)s2)c1` (racemic) [Example 167, rac-(2-Cyclopropyl-imidazo[5,1-b]thiazol-3-yl)-[5-(3-methoxy-phenyl)-thiophen-2-yl]-methanol], the IC50 in assay [1] is greater than 10200 nM; in assay [2], 639 nM.

Take `OCCOc1ccc(-n2cc(C(O)c3c(C4CC4)sc4cncn34)nn2)cc1` (racemic) [Example 136, rac-2-(4-{4-[(2-Cyclopropyl-imidazo[5,1-b]thiazol-3-yl)-hydroxy-methyl]-[1,2,3]triazol-1-yl}-phenoxy)-ethanol]: the IC50 in assay [1] was greater than 10200 nM; in assay [2] it was 10.8 nM.

As to `Cc1cc(-n2cc(C(O)c3c(C4CC4)sc4cncn34)nn2)ccc1O` (racemic) [Example 211, rac-4-{4-[(2-Cyclopropyl-imidazo[5,1-b]thiazol-3-yl)-hydroxy-methyl]-[1,2,3]triazol-1-yl}-2-methyl-phenol], the figures for the IC50 in assay [1] and in assay [2] were greater than 10200 nM and 15.8 nM, respectively.

Take `CC(C)(O)CCOc1ccc(-n2cc(C(O)c3c(C4CC4)sc4cncn34)nn2)cc1` (racemic) [Example 140, rac-4-(4-{4-[(2-Cyclopropyl-imidazo[5,1-b]thiazol-3-yl)-hydroxy-methyl]-[1,2,3]triazol-1-yl}-phenoxy)-2-methyl-butan-2-ol]: the IC50 in assay [1] was greater than 10200 nM; in assay [2], 8.46 nM.

As to `COc1cc(-n2cc(C(O)c3c(C4CC4)sc4cncn34)nn2)cnc1OC` (racemic) [Example 80, rac-(2-Cyclopropyl-imidazo[5,1-b]thiazol-3-yl)-[1-(5,6-dimethoxy-pyridin-3-yl)-1H-[1,2,3]triazol-4-yl]-methanol], the 50% inhibitory concentration (IC50) in assay [1] is greater than 10200 nM; in assay [2], 51.2 nM.
